Measured values published in patent EP0652217A1, “N-substituted imidazole derivatives” (MITSUBISHI CHEMICAL CORPORATION, priority 1993, dated 1995).

Columns and labels:
Type in all cases: in vivo
golden syrian hamsters = assay: Anti-hyperlipemic activity: inhibition of serum total cholesterol increase in cholesterol-fed hamsters; conditions: hamsters on feed with 1 % cholesterol and 0.5 % cholic acid
Experimental: Six-week old golden syrian hamsters (4 to 5 animals/group) were used.
Untreated control group received normal solid feed (MF, Oriental Kobo Kogyo), while control and a drug-treated groups received feed containing 1 % cholesterol and 0.5 % cholic acid (manufactured by Oriental Kobo Kogyo) to induce […].
The test compound was suspended in 1.0 % Tween 80. The solvent or the test compound was started to be orally administered (10 ml/kg, once a day, for 5 days) as soon as feed was changed to cholesterol-containing feed. Alter final administration, blood was drawn from abdominal descendens main vein while anesthetized with nembutal. Serum was collected and total cholesterol (TC) in serum was determined according to enzymatic method using assay kit (Kyowa Medics).

KK-A^v mice = assay: Activity to lower blood sugar (hypoglycaemic activity) in KK-A^v mice; conditions: serum
Experimental: Ten-week old KK-A^v mice (4 - 6 animals/group) were used.
The solvent (1 % Tween 80 solution) or a suspension of the test compound was orally administered once a day for 11 days (10 ml/kg).
Before administration and after the final administration, blood was drawn from caudal vein, and serum was collected and blood sugar level in serum was determined.
There was no difference between blood sugar levels before and after administration for control group. The test compound provided statistically significant decrease in blood sugar level for KK-A^v mice compared with the value before administration. The change in weight of test compound-treated group during oral administration was almost same as that of the control group.

[1] = test system: Spontaneously hypertensive rats (SHR); assay: Antihypertensive activity: blood pressure lowering in SHR; conditions: oral, suspended in 1.0 % Tween 80
Experimental: Spontaneously hypertensive rats (SHR) were anesthetized with ether and polyethylene catheter for measurement of blood pressure was inserted in ventral aortas via caudal artery on the day before these experiments, and placed in separate cages and their tails were fixed. Under aparalytic conditions, blood pressure of semi-restrained rats was measured using a pressure transducer (TP-400T, manufactured by Nippon Koden). Heart rate was determined from pulse wave measured by a cardiotachometer (AT0691G, manufactured by Nippon Koden). On the test day, the test compounds were administered to rats after blood pressure and heart rate were confirmed to become sufficiently stable.
The test compounds were suspended in Tween 80 (1.0 % solution, 10 ml/kg) and orally administered to SHRs.

[2] = oral 30 mg/kg once a day for 5 days
[3] = oral 100 mg/kg once a day for 5 days

Structure (SMILES) | Inhibition of TC increase (golden syrian hamsters; [2]) [%] | Inhibition of TC increase (golden syrian hamsters; [3]) [%] | Maximum fall in blood pressure ([1]; dose 10 mg/kg) [mmHg] | further results
c1cc(OCCCn2ccnc2)c2c(c1)OCO2 [Compound 1, 4-[3-(1-imidazolyl)propoxy]-1,3-benzodioxole] | 80 | 100 |  | Blood sugar level, After administration (KK-A^v mice; after oral 30 mg/kg once a day for 11 days, P < 0.05 vs value before administration): 532.2 ± 23.9; Blood sugar level, Before administration (KK-A^v mice; baseline before administration, 30 mg/kg group): 676.4 ± 33.7
N#Cc1ncn(CCCOc2cccc3c2OCO3)c1C#N [Compound 4, 4-[3-(4,5-dicyano-1-imidazolyl)propoxy]-1,3-benzodioxole] |  |  | -20 | 
Clc1ncn(CCCOc2cccc3c2OCO3)c1Cl [Compound 5, 4-[3-(4,5-dichloro-1-imidazolyl)propoxy]-1,3-benzodioxole] |  |  | -20 | 
c1cc(OCCCn2cnc3ccccc32)c2c(c1)OCO2 [Compound 6, 4-[3-(1-benzimidazolyl)propoxy]-1,3-benzodioxole] |  |  | -20 | 
c1cc(OCCCCn2ccnc2)c2c(c1)OCO2 [Compound 7, 4-[4-(1-imidazolyl)butoxy]-1,3-benzodioxole] | 38 |  | -60 | 
c1cc(OCCCCCn2ccnc2)c2c(c1)OCO2 [Compound 8, 4-[5-(1-imidazolyl)pentoxy]-1,3-benzodioxole] |  |  | -25 | 
O=C(NCCCn1ccnc1)c1ccc2c(c1)OCO2 [Compound 13, N-[3-(1-imidazolyl)propyl]-3,4-methylenedioxybenzamide] | 26 | 60 |  | 
O=C(NCCCn1ccnc1)c1ccc2c(c1)OCCO2 [Compound 16, N-[3-(1-imidazolyl)propyl]-1,4-benzodioxane-6-carboxamide] |  | 79 |  | Maximum fall in blood pressure ([1]; dose 30 mg/kg): -34.3 mmHg
